Drawing on PubChem BioAssay AID330 (DTP/NCI, 2004), this text covers T/C for 22 compounds.

Where “and” joins values, the source holds several entries; their conditions need not be identical. Equal values may be shown once. Toxic doses and inconclusive results are not listed.

The assay has as its system P388 leukemia ip, CD2F1 mice, survival T/C. The assay can be described thus: NCI In Vivo Anticancer Drug Screen. Data for tumor model P388 Leukemia (intraperitoneal) in CD2F1 (CDF1) mice. The conditions noted are these: endpoint: median survival time, higher = longer survival. In short, it runs like this:
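Mice carrying the transplanted tumor received test compound or vehicle. Survival was recorded in each group, and the value is the treated-group measurement divided by that of the vehicle-treated control group.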

Where [1] appears, read: dose: 6.25 mg/kg/injection, schedule: Q01DX009 (ip), vehicle: saline with Tween-80.
Where [2] appears, read: dose: 25.0 mg/kg/injection, schedule: Q01DX009 (ip), vehicle: saline with Tween-80.
Where [3] appears, read: dose: 50.0 mg/kg/injection, schedule: Q01DX009 (ip), vehicle: saline with Tween-80.
Setting [4] is: dose: 100.0 mg/kg/injection, schedule: Q01DX009 (ip), vehicle: saline with Tween-80.
[5] abbreviates: dose: 200.0 mg/kg/injection, schedule: Q01DX009 (ip), vehicle: saline with Tween-80.
The mark [6] stands for this setting: dose: 60.0 mg/kg/injection, schedule: Q01DX005 (ip), vehicle: saline with Tween-80.
[7] abbreviates: dose: 120.0 mg/kg/injection, schedule: Q01DX005 (ip), vehicle: saline with Tween-80.
Setting [8] is: dose: 240.0 mg/kg/injection, schedule: Q01DX005 (ip), vehicle: saline with Tween-80.
Setting [9] is: dose: 60.0 mg/kg/injection, schedule: Q01DX005 (ip), vehicle: Klucel (hydroxypropylcellulose) (HPC).
[10] abbreviates: dose: 120.0 mg/kg/injection, schedule: Q01DX005 (ip), vehicle: Klucel (hydroxypropylcellulose) (HPC).
Setting [11] is: dose: 240.0 mg/kg/injection, schedule: Q01DX005 (ip), vehicle: Klucel (hydroxypropylcellulose) (HPC).
Setting [12] is: dose: 100.0 mg/kg/injection, schedule: Q04DX003 (ip), vehicle: saline.
[13] abbreviates: dose: 200.0 mg/kg/injection, schedule: Q04DX003 (ip), vehicle: saline.
Setting [14] is: dose: 400.0 mg/kg/injection, schedule: Q04DX003 (ip), vehicle: saline.
The mark [15] stands for this setting: dose: 50.0 mg/kg/injection, schedule: Q01DX005 (ip), vehicle: Klucel (hydroxypropylcellulose) (HPC).

Regarding `c1ccc2c(c1)ccc1c(NCCCCNc3c4ccccc4nc4c3ccc3ccccc34)c3ccccc3nc12`, the T/C under setting [1] is 107 % of control and the T/C (dose: 12.5 mg/kg/injection, schedule: Q01DX009 (ip), vehicle: saline with Tween-80) was 107 % of control.
Take `CCN(CC)C1CC(O[C@H]2C[C@](O)(C(C)=O)Cc3c(O)c4c(c(O)c32)C(=O)c2c(OC)cccc2C4=O)OC(C)C1O` (stereo partly drawn): the T/C is, setting by setting: (dose: 0.25 mg/kg/injection, schedule: Q01DX009 (ip), vehicle: water) 104 % of control; (dose: 0.5 mg/kg/injection, schedule: Q01DX009 (ip), vehicle: water) 114 % of control; (dose: 4.0 mg/kg/injection, schedule: Q01DX009 (ip), vehicle: water) 174 % of control and 183 % of control; (dose: 6.0 mg/kg/injection, schedule: Q04DX003 (ip), vehicle: water) 117 % of control; (dose: 8.0 mg/kg/injection, schedule: Q01DX009 (ip), vehicle: water) 100 % of control; (dose: 20.0 mg/kg/injection, schedule: Q04DX003 (ip), vehicle: water) 112 % of control. Also, the T/C (dose: 33.3 mg/kg/injection, schedule: Q04DX003 (ip), vehicle: water) is 96 % of control; the T/C (dose: 48.0 mg/kg/injection, schedule: Q04DX003 (ip), vehicle: water) was 124 % of control; the T/C (dose: 96.0 mg/kg/injection, schedule: Q04DX003 (ip), vehicle: water) was 93 % of control.
For `CCCCCN(CCCCC)CCCCC`, the T/C is 86 % of control under setting [2], 98 % of control under setting [3], 101 % of control under setting [4] and 88 % of control under setting [5].
As for `C1CC2CCC(N3CCCC3)C(C1)C21OCCO1` (stereo not drawn), the T/C was 93 % of control under setting [6] and 92 % of control under setting [7].
For the compound `CCCCCC1SCC(=O)N1c1nncs1` (stereo not drawn), the T/C runs as follows: under setting [6], 106 % of control; under setting [7], 103 % of control; under setting [8], 113 % of control.
As to `Cc1cc(Cl)n[nH]1`, the T/C under setting [1] is 108 % of control; the T/C (dose: 12.0 mg/kg/injection, schedule: Q01DX009 (ip), vehicle: saline with Tween-80) is 108 % of control; the T/C under setting [2] was 106 % of control.
On to `COc1ccc(C2OC3=C(Nc4ccc(Cl)cc4N3)C2=O)cc1` (stereo not drawn), for which the T/C was 98 % of control (dose: 30.0 mg/kg/injection, schedule: Q01DX005 (ip), vehicle: Klucel (hydroxypropylcellulose) (HPC)); 94 % of control under setting [9]; 93 % of control and 97 % of control under setting [10]; 98 % of control under setting [11].
`CC1C=CCC(C)(C)C1` (stereo not drawn): the T/C was 101 % of control (dose: 100.0 mg/kg/injection, schedule: Q01DX009 (ip), vehicle: Klucel (hydroxypropylcellulose) (HPC)); 88 % of control under setting [12]; 106 % of control (dose: 200.0 mg/kg/injection, schedule: Q01DX009 (ip), vehicle: Klucel (hydroxypropylcellulose) (HPC)); 96 % of control under setting [13]; 92 % of control under setting [14].
Take `CN(C)Cc1nc2sc3c(c2c(=O)[nH]1)CCCC3`: the T/C is, setting by setting: under setting [3], 106 % of control; under setting [4], 108 % of control; under setting [5], 103 % of control.
On to `CSC(=N\N=C\c1cccs1)/N=C/N(C)C`, for which the T/C is, setting by setting: under setting [6], 92 % of control; under setting [7], 99 % of control; under setting [8], 97 % of control.
Regarding `CCCCCCCCCCCCCCC(Cl)C/[N+]([O-])=[N+](/[O-])CC(Cl)CCCCCCCCCCCCCC` (stereo not drawn), the T/C is 92 % of control under setting [12], 92 % of control under setting [13] and 92 % of control under setting [14].
`CC1=C2CC(C)(C)/C=C\C(=O)/C(C)=C\C3=CCCC3(O2)C1=O` (stereo not drawn): the T/C was 110 % of control (dose: 5.0 mg/kg/injection, schedule: Q01DX005 (ip), vehicle: Klucel (hydroxypropylcellulose) (HPC)); 120 % of control (dose: 10.0 mg/kg/injection, schedule: Q01DX005 (ip), vehicle: Klucel (hydroxypropylcellulose) (HPC)); 107 % of control (dose: 20.0 mg/kg/injection, schedule: Q01DX005 (ip), vehicle: Klucel (hydroxypropylcellulose) (HPC)).
As for `CCN(CC)CCOC(=O)C(OCCOc1ccccc1)(c1ccccc1)c1ccccc1`, the T/C is, setting by setting: under setting [15], 117 % of control; (dose: 100.0 mg/kg/injection, schedule: Q01DX005 (ip), vehicle: Klucel (hydroxypropylcellulose) (HPC)) 117 % of control.
Regarding `Nc1nc(N)c(CCc2ccccc2)c(N)n1`, the T/C by setting is: (dose: 12.5 mg/kg/injection, schedule: Q01DX005 (ip), vehicle: Klucel (hydroxypropylcellulose) (HPC)) 97 % of control; (dose: 25.0 mg/kg/injection, schedule: Q01DX005 (ip), vehicle: Klucel (hydroxypropylcellulose) (HPC)) 103 % of control; under setting [15], 92 % of control and 97 % of control.
In the case of `CN(C)P(=O)(N(C)C)N1CCCC1`, the T/C was 104 % of control (dose: 50.0 mg/kg/injection, schedule: Q01DX009 (ip), vehicle: saline); 106 % of control (dose: 100.0 mg/kg/injection, schedule: Q01DX009 (ip), vehicle: saline); 105 % of control (dose: 200.0 mg/kg/injection, schedule: Q01DX009 (ip), vehicle: saline).
For `COC1=CC(C)C2CC3OC(O)CC4C(C)=C(OC)C(=O)C(C2(C)C1=O)C34C` (stereo not drawn), the T/C under setting [9] is 94 % of control, the T/C under setting [10] is 94 % of control and the T/C under setting [11] was 89 % of control.
In the case of `CC1=NC(c2ccccn2)=NNC(c2ccccn2)=C1c1ccccc1`, the T/C by setting is: (dose: 25.0 mg/kg/injection, schedule: Q01DX009 (ip), vehicle: other) 113 % of control; (dose: 50.0 mg/kg/injection, schedule: Q01DX009 (ip), vehicle: other) 116 % of control; (dose: 100.0 mg/kg/injection, schedule: Q01DX009 (ip), vehicle: other) 116 % of control; (dose: 200.0 mg/kg/injection, schedule: Q01DX009 (ip), vehicle: other) 114 % of control; (dose: 400.0 mg/kg/injection, schedule: Q01DX009 (ip), vehicle: other) 120 % of control.
As for `CC(=O)NC1C(=O)OC(C(O)CO)C1O` (stereo not drawn), the T/C is 106 % of control (dose: 12.5 mg/kg/injection, schedule: Q01DX009 (ip), vehicle: water); 91 % of control (dose: 25.0 mg/kg/injection, schedule: Q01DX009 (ip), vehicle: water); 94 % of control (dose: 50.0 mg/kg/injection, schedule: Q01DX009 (ip), vehicle: water); 102 % of control (dose: 100.0 mg/kg/injection, schedule: Q01DX009 (ip), vehicle: water); 98 % of control (dose: 200.0 mg/kg/injection, schedule: Q01DX009 (ip), vehicle: water).
In the case of `COc1cc(/C=C/C(=O)c2ccccc2O)cc(OC)c1OC`, the T/C is 97 % of control (dose: 50.0 mg/kg/injection, schedule: Q01DX005 (ip), vehicle: saline with Tween-80); 110 % of control (dose: 100.0 mg/kg/injection, schedule: Q01DX005 (ip), vehicle: saline with Tween-80); 97 % of control (dose: 200.0 mg/kg/injection, schedule: Q01DX005 (ip), vehicle: saline with Tween-80).
On to `COc1ccc2c(c1OC)Oc1c(OC)ccc3c1C(C2)N(C)C[C@@H]3O` (stereo partly drawn), for which the T/C was 103 % of control (dose: 5.75 mg/kg/injection, schedule: Q01DX005 (ip), vehicle: Klucel (hydroxypropylcellulose) (HPC)); 109 % of control (dose: 11.5 mg/kg/injection, schedule: Q01DX005 (ip), vehicle: Klucel (hydroxypropylcellulose) (HPC)); 100 % of control (dose: 23.0 mg/kg/injection, schedule: Q01DX005 (ip), vehicle: Klucel (hydroxypropylcellulose) (HPC)); 99 % of control (dose: 46.0 mg/kg/injection, schedule: Q01DX005 (ip), vehicle: Klucel (hydroxypropylcellulose) (HPC)).
With `COc1cc2cc3cc(-c4ccc(Cl)cc4)c(N4CCN(C)CC4)nc3nc2cc1OC`, the T/C runs as follows: under setting [6], 94 % of control; under setting [7], 101 % of control; under setting [8], 111 % of control.
As to `c1ccc2c(c1)N=Nc1ccccc1OCCOCCOCCO2`, the T/C runs as follows: (dose: 25.0 mg/kg/injection, schedule: Q01DX001 (ip), vehicle: saline with Tween-80) 103 % of control; (dose: 50.0 mg/kg/injection, schedule: Q01DX001 (ip), vehicle: saline with Tween-80) 102 % of control; (dose: 100.0 mg/kg/injection, schedule: Q01DX001 (ip), vehicle: saline with Tween-80) 92 % of control.
